{
  "source": "patent US20230381155A1",
  "about": "“TREATMENT OF BREAST CANCER USING COMBINATION THERAPIES COMPRISING GDC-9545 AND GDC-0077” (Genentech, Inc., priority 2021, published 2023)",
  "key": {"[1]": {"system": "frontline patients", "settings": "NCT01602380; cited from earlier work"}, "[2]": {"system": "ER+ breast cancer xenograft models", "experiment": "xenograft models, efficacy versus fulvestrant", "format": "in vivo", "settings": "fulvestrant dosed according to a clinically relevant dosing scheme"}, "[3]": {"experiment": "oral bioavailability", "settings": "in vivo"}, "[4]": {"system": "MCF-7.ER.Y537S cells", "experiment": "CyQUANT relative viability, MCF-7.ER.Y537S", "format": "cell-based", "settings": "300 nM GDC-9545, 80 nM GDC-0077, alone or combined; 0.1 nmol/L E2; 6 to 8 days", "method": "(§1) Cells were treated as shown for 6 to 8 days, and relative viability was assessed. *p<0.0001, parametric t-test.\nOne day prior to the addition of drugs, cells were seeded in 384-well plates in phenol red-free RPMI with 10% charcoal-stripped fetal bovine serum in order to deprive the cells of hormones. Single agent 300 nM GDC-9545, 80 nM GDC-0077, 125 nM palbociclib or a combination thereof, were tested in quadruplicate in the presence of 0.1 nmol/L estradiol (E2) during a 6-day or 8-day incubation period. The absence of E2 in the media (−E2) serves to mimic treatment with an Aromatase Inhibitor (AI). The combination of E2 withdrawal plus palbociclib—reflecting the current standard of care for metastatic breast cancer—was included. Drug concentrations of GDC-0077 and palbociclib were chosen to be clinically relevant, based on human exposures. 300 nM GDC-9545 is a saturating concentration that is lower than the human dose equivalent of 30 mg. The relative number of viable cells at the 6/8-day timepoint was determined by CyQUANT (ThermoFisher, C7026)."}, "[5]": {"system": "ESR1 wildtype T-47D (PIK3CA.H1047R) cells", "experiment": "CyQUANT relative viability, T-47D wildtype ESR1", "format": "cell-based", "settings": "300 nM GDC-9545, 80 nM GDC-0077, alone or combined; 0.1 nmol/L E2; 6 to 8 days", "description": "Combination of GDC-9545 and GDC-007 was investigated and compared to efficacy of each single agent and to an AI+palbociclib control. ESR1 wildtype MCF-7 (PIK3CA.E545K) and T-47D (PIK3CA.H1047R) cells, and engineered ESR1 mutant cells [MCF-7.ER.Y537S, T-47D.ER.D538G] were grown under standard cell culture conditions in RPMI media with 10% fetal bovine serum. One day prior to the addition of drugs, cells were seeded in 384-well plates in phenol red-free RPMI with 10% charcoal-stripped fetal bovine serum in order to deprive the cells of hormones. Single agent 300 nM GDC-9545, 80 nM GDC-0077, 125 nM palbociclib or a combination thereof, were tested in quadruplicate in the presence of 0.1 nmol/L estradiol (E2) during a 6-day or 8-day incubation period. The absence of E2 in the media (−E2) serves to mimic treatment with an Aromatase Inhibitor (AI). The combination of E2 withdrawal plus palbociclib—reflecting the current standard of care for metastatic breast cancer—was included. Drug concentrations of GDC-0077 and palbociclib were chosen to be clinically relevant, based on human exposures. […] The relative number of viable cells at the 6/8-day timepoint was determined by CyQUANT (ThermoFisher, C7026)."}, "[6]": {"system": "ER+ breast cancer models of ESR1-wild type and ESR1-mutation-bearing disease", "experiment": "nonclinical activity in ER+ breast cancer models"}, "[7]": {"format": "in vitro ADME"}, "[8]": {"system": "ESR1 wildtype MCF-7 (PIK3CA.E545K) cells", "experiment": "CyQUANT relative viability, MCF-7 wildtype ESR1", "format": "cell-based", "settings": "300 nM GDC-9545, 80 nM GDC-0077, alone or combined; 0.1 nmol/L E2; 6 to 8 days", "method": "as §1\nESR1 wildtype MCF-7 (PIK3CA.E545K) and T-47D (PIK3CA.H1047R) cells, and engineered ESR1 mutant cells [MCF-7.ER.Y537S, T-47D.ER.D538G] were grown under standard cell culture conditions in RPMI media with 10% fetal bovine serum. One day prior to the addition of drugs, cells were seeded in 384-well plates in phenol red-free RPMI with 10% charcoal-stripped fetal bovine serum in order to deprive the cells of hormones. Single agent 300 nM GDC-9545, 80 nM GDC-0077, 125 nM palbociclib or a combination thereof, were tested in quadruplicate in the presence of 0.1 nmol/L estradiol (E2) during a 6-day or 8-day incubation period. The absence of E2 in the media (−E2) serves to mimic treatment with an Aromatase Inhibitor (AI). The combination of E2 withdrawal plus palbociclib—reflecting the current standard of care for metastatic breast cancer—was included. […] The relative number of viable cells at the 6/8-day timepoint was determined by CyQUANT (ThermoFisher, C7026)."}, "[9]": {"biological_target": "T1, ER (Homo sapiens, UniProt P03372)", "T1 sequence (P03372 1-595)": "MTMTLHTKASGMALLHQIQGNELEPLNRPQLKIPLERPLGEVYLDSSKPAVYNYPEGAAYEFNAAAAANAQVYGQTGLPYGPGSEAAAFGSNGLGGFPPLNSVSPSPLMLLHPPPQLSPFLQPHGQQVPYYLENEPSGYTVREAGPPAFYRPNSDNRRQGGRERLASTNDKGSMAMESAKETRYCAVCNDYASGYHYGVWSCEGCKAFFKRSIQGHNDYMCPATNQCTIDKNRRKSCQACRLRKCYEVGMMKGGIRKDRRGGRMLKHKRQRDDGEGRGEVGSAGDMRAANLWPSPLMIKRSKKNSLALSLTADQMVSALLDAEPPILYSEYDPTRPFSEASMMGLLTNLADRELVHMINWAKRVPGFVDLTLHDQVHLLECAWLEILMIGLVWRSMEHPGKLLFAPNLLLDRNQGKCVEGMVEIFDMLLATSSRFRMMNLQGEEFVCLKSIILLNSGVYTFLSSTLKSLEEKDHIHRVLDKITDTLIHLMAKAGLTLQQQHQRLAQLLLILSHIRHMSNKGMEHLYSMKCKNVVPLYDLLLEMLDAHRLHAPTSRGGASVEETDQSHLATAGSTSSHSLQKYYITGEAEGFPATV", "experiment": "competition with estrogens for binding to the ER"}, "[10]": {"system": "ER, wild-type and ESR1-mutant contexts", "experiment": "in vitro cell and biochemical assays, potency versus fulvestrant"}, "[11]": {"system": "T-47D.ER.D538G cells", "experiment": "CyQUANT relative viability, T-47D.ER.D538G", "format": "cell-based", "settings": "300 nM GDC-9545, 80 nM GDC-0077, alone or combined; 0.1 nmol/L E2; 6 to 8 days", "method": "as §1"}, "[12]": {"experiment": "human steady-state total drug exposure, GDC-9545 versus fulvestrant", "format": "in vivo", "settings": "GDC-9545 30 mg QD versus fulvestrant 500 mg IM monthly"}, "[13]": {"system": "other Class I PI3Ks, including the β, δ, and γ isoforms", "experiment": "biochemical inhibition of other Class I PI3Ks", "settings": "δ, and γ isoforms versus PI3K-α"}, "[14]": {"system": "mutant p110a", "experiment": "degradation of mutant p110a", "format": "cell-based", "settings": "nonclinical studies", "text": "Without being bound by any particular theory, GDC-0077 appears to exert its activity by binding to the adenosine binding site of p110a, thereby inhibiting the phosphorylation of membrane-bound phosphatidylinositol 4,5-bisphosphate (PIP2) to phosphatidylinositol 3,4,5-trisphophate (PIP3). This inhibition decreases downstream activation of pathway effectors including Akt and S6RP, resulting in decreased cellular proliferation, metabolism, and angiogenesis."}, "[15]": {"system": "PIK3CA-mutant breast cancer cell lines", "experiment": "proliferation and apoptosis in PIK3CA-mutant breast cancer cell lines", "format": "cell-based", "settings": "nonclinical studies"}, "[16]": {"system": "human breast cancer xenograft models harboring PIK3CA mutations", "experiment": "tumor growth in breast cancer xenograft models", "format": "in vivo", "settings": "nonclinical studies"}, "[17]": {"system": "patients with measurable disease", "experiment": "clinical study of single agent GDC-0077, RECIST v1.1 response", "format": "in vivo, human", "settings": "among 20 patients", "text": "In one study using single agent administration of GDC-0077, among 20 patients with measurable disease treated with a 6-mg, 9-mg, or 12-mg QD starting dose of GDC-0077 as a single agent, 5 patients (25%) achieved PRs, while 9 patients (45%) achieved clinical benefit (defined as the percentage of patients achieving confirmed Response Evaluation Criteria in Solid Tumors, Version 1.1 [RECIST v1.1]-defined CR, PR, and/or SD [non-complete response/non-progressive disease for patients with non-measurable disease at baseline] for 24 weeks). Further, 14 of the 20 patients were enrolled at the 6-mg or 9-mg QD starting dose, and 3 patients had received prior treatment with a CDK4/6i."}, "[18]": {"biological_target": "Class I alpha isoform of phosphatidylinositol 3-kinase (PI3K-α) (Homo sapiens, UniProt P42336)", "sequence (P42336 whole entry, canonical isoform)": "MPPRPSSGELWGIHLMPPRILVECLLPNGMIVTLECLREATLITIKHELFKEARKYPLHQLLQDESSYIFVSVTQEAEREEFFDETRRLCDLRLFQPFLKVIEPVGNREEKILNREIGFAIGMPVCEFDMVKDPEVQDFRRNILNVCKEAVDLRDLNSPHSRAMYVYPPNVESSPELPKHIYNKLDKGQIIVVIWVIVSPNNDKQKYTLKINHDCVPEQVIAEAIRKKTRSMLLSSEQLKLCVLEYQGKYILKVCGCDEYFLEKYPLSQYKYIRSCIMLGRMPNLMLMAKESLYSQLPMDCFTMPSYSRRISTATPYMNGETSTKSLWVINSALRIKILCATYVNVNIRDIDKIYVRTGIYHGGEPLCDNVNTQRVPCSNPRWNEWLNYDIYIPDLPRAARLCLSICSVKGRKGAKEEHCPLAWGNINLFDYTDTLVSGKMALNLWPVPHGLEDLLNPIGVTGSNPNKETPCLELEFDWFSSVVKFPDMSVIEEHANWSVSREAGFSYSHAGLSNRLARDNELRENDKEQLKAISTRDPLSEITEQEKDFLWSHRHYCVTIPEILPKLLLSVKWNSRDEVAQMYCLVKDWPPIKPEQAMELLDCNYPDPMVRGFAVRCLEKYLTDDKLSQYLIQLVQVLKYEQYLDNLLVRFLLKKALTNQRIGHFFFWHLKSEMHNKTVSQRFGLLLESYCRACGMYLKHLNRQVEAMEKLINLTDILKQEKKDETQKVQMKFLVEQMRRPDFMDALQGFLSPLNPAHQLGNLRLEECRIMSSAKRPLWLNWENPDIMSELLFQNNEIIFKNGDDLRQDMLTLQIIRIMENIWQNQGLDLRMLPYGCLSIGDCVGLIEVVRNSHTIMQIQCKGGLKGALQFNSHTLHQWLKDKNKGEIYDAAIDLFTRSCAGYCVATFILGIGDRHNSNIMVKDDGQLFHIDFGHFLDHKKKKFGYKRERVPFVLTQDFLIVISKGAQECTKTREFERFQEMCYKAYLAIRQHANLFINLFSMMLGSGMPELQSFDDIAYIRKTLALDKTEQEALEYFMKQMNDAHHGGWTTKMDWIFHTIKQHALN", "sequence (P27986 whole entry partner, canonical isoform)": "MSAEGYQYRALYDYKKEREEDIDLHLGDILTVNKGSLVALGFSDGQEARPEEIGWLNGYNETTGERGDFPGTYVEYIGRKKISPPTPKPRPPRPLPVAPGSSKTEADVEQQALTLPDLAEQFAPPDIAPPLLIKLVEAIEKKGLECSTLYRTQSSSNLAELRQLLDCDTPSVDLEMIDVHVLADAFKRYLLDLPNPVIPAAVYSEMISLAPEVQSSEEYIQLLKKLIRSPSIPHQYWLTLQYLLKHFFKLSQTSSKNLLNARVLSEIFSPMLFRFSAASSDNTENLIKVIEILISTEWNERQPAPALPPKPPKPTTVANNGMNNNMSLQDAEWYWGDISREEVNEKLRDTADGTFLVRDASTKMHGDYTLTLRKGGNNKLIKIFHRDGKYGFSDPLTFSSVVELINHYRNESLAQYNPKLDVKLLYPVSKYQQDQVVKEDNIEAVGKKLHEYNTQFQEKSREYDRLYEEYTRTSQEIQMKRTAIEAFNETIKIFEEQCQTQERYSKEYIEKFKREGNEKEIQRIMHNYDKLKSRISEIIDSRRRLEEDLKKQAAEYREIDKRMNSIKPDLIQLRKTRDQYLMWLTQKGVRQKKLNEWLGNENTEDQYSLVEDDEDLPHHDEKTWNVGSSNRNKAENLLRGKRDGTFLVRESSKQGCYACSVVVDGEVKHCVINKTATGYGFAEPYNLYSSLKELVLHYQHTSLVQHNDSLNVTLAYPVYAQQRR", "experiment": "biochemical inhibition of PI3K-α"}, "[19]": {"system": "tumor cells bearing mutant p110a", "experiment": "potency in tumor cells, mutant versus wild-type p110a", "format": "cell-based"}, "[20]": {"system": "pAkt, pPRAS40, pS6RP", "experiment": "downstream PI3K pathway markers", "settings": "nonclinical studies"}, "[21]": {"settings": "6-mg, 9-mg, or 12-mg QD starting dose, single agent"}, "[22]": {"settings": "CR, PR and/or SD for 24 weeks, RECIST v1.1"}},
  "note": "Entries after “also recorded” stand apart in the source; their conditions may differ.",
  "data": [
    {"smiles": "C[C@]12CC[C@@H]3c4ccc(O)cc4C[C@@H](CCCCCCCCC[S+]([O-])CCCC(F)(F)C(F)(F)F)[C@H]3[C@@H]1CC[C@@H]2O", "note": "(stereo partly shown) [fulvestrant]", "values": [
      {"measurement": "clinical benefit compared with anastrozole", "setting": "[1]", "value": "benefit over anastrozole"},
      {"measurement": "efficacy in xenograft models", "setting": "[2]", "value": "less efficacious than GDC-9545"}
    ]},
    {"smiles": "C[C@@H]1Cc2c([nH]c3ccccc23)[C@@H](c2c(F)cc(NC3CN(CCCF)C3)cc2F)N1CC(F)(F)CO", "note": "[GDC-9545]", "values": [
      {"measurement": "oral bioavailability", "setting": "[3]", "value": "orally bioavailable"},
      {"measurement": "anti-proliferative effect / relative viability", "setting": "[4]", "value": "reduced cell numbers relative to the control condition"},
      {"measurement": "anti-proliferative effect / relative viability", "setting": "[5]", "value": "reduced cell proliferation relative to control treated cells; also recorded: did not achieve the same anti-proliferative activity as the combination of the agents"},
      {"measurement": "nonclinical activity", "setting": "[6]", "value": "robust nonclinical activity"},
      {"measurement": "plasma protein binding compared with fulvestrant", "setting": "[7]", "value": "lower plasma protein binding"},
      {"measurement": "anti-proliferative effect / relative viability", "setting": "[8]", "value": "greater impact on cell viability versus estrogen withdrawal"},
      {"measurement": "potency of competition with estrogens for binding to the ER", "setting": "[9]", "value": "low nanomolar potency"},
      {"measurement": "potency relative to fulvestrant", "setting": "[10]", "value": "up to 10 times"},
      {"measurement": "anti-proliferative effect / relative viability", "setting": "[11]", "value": "considerably more impactful than E2 withdrawal"},
      {"measurement": "human steady-state total drug exposure relative to fulvestrant", "setting": "[12]", "value": "approximately 10 fold"}
    ]},
    {"smiles": "C[C@H](Nc1ccc2c(c1)OCCn1cc(N3C(=O)OC[C@H]3C(F)F)nc1-2)C(N)=O", "note": "[GDC-0077, (2S)-2-[[2-[(4S)-4-(Difluoromethyl)-2-oxo-3-oxazolidinyl]-5,6-dihydroimidazo[1,2-d][1,4]benzoxazepin-9-yl]amino]propanamide]", "values": [
      {"measurement": "less potent biochemical inhibition of other Class I PI3Ks (selectivity)", "setting": "[13]", "value": "> 300", "unit": "fold"},
      {"measurement": "degradation of mutant p110a", "setting": "[14]", "value": "specifically degrades mutant p110a"},
      {"measurement": "apoptosis", "setting": "[15]", "value": "induces apoptosis"},
      {"measurement": "proliferation", "setting": "[15]", "value": "inhibits proliferation"},
      {"measurement": "tumor growth", "setting": "[16]", "value": "inhibits tumor growth"},
      {"measurement": "patients achieving PRs", "setting": "[17]; [21]", "value": 5, "unit": "patients"},
      {"measurement": "patients achieving PRs, percentage", "setting": "[17]; [21]", "value": 25, "unit": "%"},
      {"measurement": "patients achieving clinical benefit", "setting": "[17]; [22]", "value": 9, "unit": "patients"},
      {"measurement": "patients achieving clinical benefit, percentage", "setting": "[17]; [22]", "value": 45, "unit": "%"},
      {"measurement": "anti-proliferative effect / relative viability", "setting": "[5]", "value": "did not achieve the same anti-proliferative activity as the combination of the agents"},
      {"measurement": "inhibition of PI3K-α", "setting": "[18]", "value": "potent and selective inhibitor"},
      {"measurement": "potency in cells bearing mutant p110a over cells bearing wild-type p110a", "setting": "[19]", "value": "increased potency"},
      {"measurement": "downstream PI3K pathway markers pAkt, pPRAS40, pS6RP", "setting": "[20]", "value": "reduces downstream PI3K pathway markers"}
    ]}
  ]
}
